This is an account of results in paper PMC6027051, “Polymer–Surfactant System Based Amorphous Solid Dispersion: Precipitation Inhibition and Bioavailability Enhancement of Itraconazole” (Pharmaceutics, 2018).

Holding throughout (format): physicochemical
A short description of data set [1]: Equilibrium solubility of ITZ in SIF with or without surfactant (shaking flask method). The conditions noted are these: for solubility thermodynamic at 48 h: 37 °C, n = 3, read-out: ITZ Concentration in SIF (equilibrium solubility). How it is done:
An excess amount of ITZ was added to SIF with or without pre-dissolved surfactant (1 mg/mL) and mixed by vortex for 2 min. After incubation in a shaking incubator at 37 °C for 48 h, the suspension was centrifuged (15,000 rpm for 10 min) and filtered through a 0.22 μm Millipore filter (Jinteng Experimental Equipment Co., Ltd, Tianjin, China). Prior to assay by high performance liquid (HPLC) (Shimadzu Corporation, Kyoto, Japan) using a PhenomenexC18 column (4.6 × 250 mm, 5 μm), the filtrate was diluted 1:1 with mobile phase. The mobile phase was consisted of 0.5% diisopropylamine in methanol and 0.1% ammonium acetate in distilled water (80:20) with a rate of 1.0 mL/min. The effluent was monitored at an ultraviolet-visible (UV) absorption wavelength of 263 nm. The retention time of ITZ under these conditions was 4.9 min. Calibration curve (Figure 1A) were linear over a concentration range of 0.04–40 μg/mL. The limit of quantitation (LOQ) and limit of detection (LOD) was 25 ng and 10 ng, respectively. Each equilibrium solubility test was performed in triplicate.

Data set [2] in a line: Supersaturation dissolution test with pH-shift (SGF to SIF, USP paddle method). Here is the method: In order to simulate the drug peristalsis in vivo situation, a transfer of simulated gastric fluid (SGF) to SIF was conducted for in vitro dissolution experiment. Supersaturation dissolution tests were performed according to USP 29 Apparatus 2 guidelines (paddle method) with a ZRS-8G dissolution tester (TDTF, Tianjin, China). Briefly, samples containing equivalent amounts of ITZ (45 mg) were subjected to each dissolution vessel containing SGF (750 mL of 0.1 N HCl) for 2 h, followed by pH adjustment to 6.8 by the addition of 250 mL of 0.2 M tribasic sodium phosphate (Na3PO4) for additional 3 h. The dissolution media was kept at 37.0 ± 0.5 °C and the paddle speed was maintained at 100 rpm throughout the test procedure. Aliquot samples (5 mL) were withdrawn at predetermined time intervals (120, 125, 150, 180, 240, and 300 min). The samples were filtered through a […] millipore filter and the first few drops were discarded. The filtrate was immediately diluted with methanol to prevent the precipitation. The ITZ concentration was assayed by ultraviolet spectrophotometry (TU-1901, Beijing Purkinje General Instrument Co., Ltd., Beijing, China) at a wavelength of 263 nm. The calibration curve of ITZ in UV spectrophotometry was shown in Figure 1B with a concentration range of 0.25–80 μg/mL. […]

A short description of data set [3]: Nucleation induction time measurement (turbidity at 490 nm, plate reader) in SIF. The note with it: supersaturated ITZ solution by solvent shift (DMSO stock into SIF), absorbance 490 nm. How it is done: Supersaturation stability is commonly evaluated by measuring the induction time for nucleation, which is defined as the time lag for the appearance of the observable crystals. In this study, the precipitation induction time of different formulations were obtained by determining the changes in turbidity using plate reader detection technique. Supersaturated ITZ solutions were prepared by the solvent shift method. All the samples were dissolved in dimethyl sulfoxide (DMSO) to obtain ITZ stock solution at a concentration of 1mg/mL, then the stock solution was added into SIF and stirred constantly to generate a supersaturated solution. Immediately, 300 μL of individual supersaturated solution was transferred into a 96-well polypropylene plate and the optical density value of each well was measured at 490 nm using plate reader (Bio-Tek, Winooski, VT, USA). […] Thus, the turbidity was the only contributor to the changed absorbance. The samples were also shaken before the measurement and each formulation was detected in triplicate. All the analyses and calculations were carried out using Gen 5.0 (Bio-Tek, Winooski, VT, USA).

≈ marks a conversion by molar mass, not a printed value. Where two headings read alike, the source gives them in different places. Bounds are passed on as bounds.

With `CCC(C)n1ncn(-c2ccc(N3CCN(c4ccc(OCC5COC(Cn6cncn6)(c6ccc(Cl)cc6Cl)O5)cc4)CC3)cc2)c1=O` (centres unmarked) [ITZ, Itraconazole], the solubility thermodynamic at 48 h in data set [1] (SIF with Poloxamer 188 1 mg/mL, pH 6.8, SIF pH 6.8 with Poloxamer 188 1 mg/mL) is 0.92 ± 0.27 µg/mL (≈ 1.3 µM); in data set [1] (SIF with SDS 1 mg/mL, pH 6.8, SIF pH 6.8 with SDS 1 mg/mL), 1.66 ± 0.53 µg/mL (≈ 2.35 µM); in data set [1] (SIF with Soluplus 1 mg/mL, pH 6.8, SIF pH 6.8 with Soluplus 1 mg/mL) it was 0.1 ± 0.06 µg/mL (≈ 0.142 µM); in data set [1] (SIF with TPGS 1 mg/mL, pH 6.8, SIF pH 6.8 with TPGS 1 mg/mL), 4.83 ± 0.81 µg/mL (≈ 6.84 µM); in data set [1] (SIF with Tween 80 1 mg/mL, pH 6.8, aqueous with cosolvent or surfactant or cyclodextrin, thermodynamic from solid, SIF pH 6.8 with Tween 80 1 mg/mL) it was 0.03 ± 0.01 µg/mL (≈ 0.0425 µM); in data set [1] (SIF with sodium cholate 1 mg/mL, pH 6.8, aqueous with cosolvent or surfactant or cyclodextrin, thermodynamic from solid, SIF pH 6.8 with Sodium cholate 1 mg/mL), 0.07 ± 0.02 µg/mL (≈ 0.0992 µM). Besides, in data set [1] (simulated intestinal fluid (SIF) without surfactant, pH 6.8, fassgf or other biorelevant, thermodynamic from solid, SIF pH 6.8 without surfactant (Blank group)), the solubility thermodynamic at 48 h was about 0.008 µg/mL (≈ 0.0113 µM). In addition, the “Increase of equilibrium solubility in the presence of TPGS over SIF” value in data set [1] (SIF with TPGS vs SIF alone) is “approximately 580 fold”. The “ITZ released after 2 h in SGF” value in data set [2] (SGF (0.1 N HCl), 120 min, 37 °C, 45 mg ITZ) was 3%. In data set [2] (SIF pH 6.8, precipitation from five minutes after the pH change), the “Cumulative release amount after pH change to 6.8 (rapid precipitation, eventually dropped to)” value is under 1%. Moreover, in data set [3], the “Turbidity / precipitation behaviour in the absorbance-time curve” value is recorded as “rapid increase in the absorbance followed by a gradual decline”.
